Results: ChEMBL document CHEMBL1811878, “Heteroatom-substituted analogues of orphan nuclear receptor small heterodimer partner ligand and apoptosis inducer (E)-4-[3-(1-Adamantyl)-4-hydroxyphenyl]-3-chlorocinnamic acid” (J Med Chem, 2011)
In brackets after ≈: the same amount, converted by molar mass. Activity calls are given as the source filed them. The rule behind the calls is not given here.

Assays:
[1] = tested on: PC-3; assay: Induction of apoptosis in human PC3 cells assessed as decrease in ATP level after 72 hrs by luminescence assay; format: functional, cell-based
[2] = tested on: HT-29; assay: Induction of apoptosis in human HT-29 cells assessed as decrease in ATP level after 72 hrs by luminescence assay; format: functional, cell-based
[3] = tested on: Mus musculus; assay: Toxicity in ICR-SCIDS mouse harboring xenograft assessed as exhibiting symptoms of dehydration at 20 mg/kg, iv qd administered alternate days for a total of 15 doses measured on day 9; format: organism-based; design: dose 20 mg/kg, route intravenous; settings: in vivo
[4] = tested on: Mus musculus; assay: Toxicity in ICR-SCIDS mouse assessed as decrease in body weight at 20 mg/kg, iv qd administered at a 25% increment in dose each day for 7 days measured on day 7 relative to body weight on day 1; format: organism-based; design: dose 20 mg/kg, route intravenous; scale not given: the % may be the effect or the level left; settings: in vivo, 168 h
[5] = tested on: PC-3; assay: Induction of apoptosis in human PC3 cells assessed as decrease in ATP level at 10 uM after 72 hrs by luminescence assay; format: functional, cell-based
[6] = tested on: A549; assay: Induction of apoptosis in human A549 cells assessed as decrease in ATP level at 5 uM after 72 hrs by luminescence assay; format: functional; design: scale not given: the % may be the effect or the level left
[7] = tested on: Mus musculus; assay: Toxicity in ICR-SCIDS mouse assessed as decrease in body weight at 20 mg/kg, iv qd administered at a 25% increment in dose each day for 7 days measured on day 8 relative to control; format: organism-based; design: dose 20 mg/kg, route intravenous; scale not given: the % may be the effect or the level left; settings: in vivo, 168 h
[8] = tested on: A549; assay: Induction of apoptosis in human A549 cells assessed as decrease in ATP level at 10 uM after 72 hrs by luminescence assay; format: functional, cell-based
[9] = tested on: HT-29; assay: Induction of apoptosis in human HT-29 cells assessed as decrease in ATP level at 10 uM after 72 hrs by luminescence assay; format: functional
[10] = tested on: KG-1; assay: Growth inhibition in human KG1 cells expressing p53 gene at 5 uM after 48 hrs by MTT assay; format: functional; settings: KG-1, 48 h, read-out: GI
[11] = tested on: Mus musculus; assay: Toxicity in ICR-SCIDS mouse harboring xenograft assessed as body weight loss at 20 mg/kg, iv qd administered alternate days for a total of 15 doses measured on day 9; format: organism-based; design: dose 20 mg/kg, route intravenous; settings: in vivo
[12] = tested on: KG-1; assay: Induction of apoptosis in human KG1 cells expressing p53 gene assessed as DNA fragmentation at 1 uM after 48 hrs by acridine orange staining method; format: functional
[13] = tested on: PC-3; assay: Induction of apoptosis in human PC3 cells assessed as decrease in ATP level at 5 uM after 72 hrs by luminescence assay; format: functional; design: scale not given: the % may be the effect or the level left
[14] = tested on: KG-1; assay: Induction of apoptosis in human KG1 cells assessed as DNA fragmentation at 5 uM after 48 hrs by acridine orange staining method; format: functional
[15] = tested on: Mus musculus; assay: Toxicity in ICR-SCIDS mouse assessed as increase in body weight at 20 mg/kg, iv qd administered at a 25% increment in dose each day for 7 days measured on day 4; format: organism-based; design: dose 20 mg/kg, route intravenous; settings: in vivo, 168 h
[16] = tested on: Mus musculus; assay: Toxicity in ICR-SCIDS mouse harboring xenograft assessed as occurrence of diarrhea at 20 mg/kg, iv qd administered alternate days for a total of 15 doses measured on day 9; format: organism-based; design: dose 20 mg/kg, route intravenous; settings: in vivo
[17] = Induction of apoptosis in mouse MMTV-Wnt-1 cells assessed as cell viability after 72 hrs by DAPI staining based cell counting; format: functional
[18] = Aqueous solubility of the compound in PBS at pH 7.2 by UV spectrophotometric analysis; format: physicochemical
[19] = tested on: Mus musculus; assay: Toxicity in ICR-SCIDS mouse assessed as increase in body weight at 20 mg/kg, iv qd administered at a 25% increment in dose each day for 7 days measured on day 1; format: organism-based; design: dose 20 mg/kg, route intravenous; settings: in vivo, 168 h
[20] = tested on: KG-1; assay: Growth inhibition in human KG1 cells expressing p53 gene at 1 uM after 48 hrs by MTT assay; format: functional; settings: KG-1, 48 h, read-out: GI
[21] = tested on: A549; assay: Induction of apoptosis in human A549 cells assessed as decrease in ATP level after 72 hrs by luminescence assay; format: functional, cell-based
[22] = tested on: Mus musculus; assay: Toxicity in ICR-SCIDS mouse harboring xenograft assessed as occurrence of scruffy coat at 20 mg/kg, iv qd administered alternate days for a total of 15 doses measured on day 9; format: organism-based; design: dose 20 mg/kg, route intravenous; settings: in vivo
[23] = tested on: Mus musculus; assay: Toxicity in ICR-SCIDS mouse harboring xenograft assessed as decreased physical activity at 20 mg/kg, iv qd administered alternate days for a total of 15 doses measured on day 9; format: organism-based; design: dose 20 mg/kg, route intravenous; settings: in vivo
[24] = tested on: HT-29; assay: Induction of apoptosis in human HT-29 cells assessed as decrease in ATP level at 5 uM after 72 hrs by luminescence assay; format: functional; design: scale not given: the % may be the effect or the level left
[25] = tested on: MDA-MB-231; assay: Growth inhibition of retinoid-resistant human MDA-MB-231 cells expressing p53 and ERbeta gene at 1 uM after 24 hrs by MTT assay; format: functional; settings: MDA-MB-231, 24 h, read-out: GI
[26] = tested on: MDA-MB-231; assay: Induction of apoptosis in retinoid-resistant human MDA-MB-231 cells expressing p53 and ERbeta gene assessed as DNA fragmentation at 1 uM after 24 hrs by acridine orange staining method; format: functional
[27] = Aqueous solubility of the compound in water at pH 5 by UV spectrophotometric analysis; format: physicochemical
[28] = Induction of apoptosis in retinoid-resistant p53 null human HL60R cells assessed as DNA fragmentation at 1 uM after 24 hrs by acridine orange staining method; format: functional
[29] = tested on: MDA-MB-231; assay: Induction of apoptosis in retinoid-resistant human MDA-MB-231 cells expressing p53 and Erbeta gene assessed as DNA fragmentation at 0.1 to 1 uM after 48 hrs by acridine orange staining method; format: functional, cell-based
[30] = tested on: MDA-MB-231; assay: Induction of apoptosis in retinoid-resistant human MDA-MB-231 cells expressing p53 and ERbeta gene assessed as DNA fragmentation at 1 uM after 48 hrs by acridine orange staining method; format: functional
[31] = tested on: MDA-MB-231; assay: Growth inhibition of retinoid-resistant human MDA-MB-231 cells expressing p53 and Erbeta gene at 0.1 to 1 uM after 48 hrs by MTT assay; format: functional, cell-based
[32] = Induction of apoptosis in retinoid-resistant p53 null human HL60R cells assessed as DNA fragmentation at 0.1 uM after 24 hrs by acridine orange staining method; format: functional
[33] = tested on: HT-29; assay: Induction of apoptosis in human HT-29 cells assessed as decrease in ATP level at 10 uM after 72 hrs by luminescence assay relative to control; format: functional; design: scale not given: the % may be the effect or the level left
[34] = tested on: MDA-MB-231; assay: Growth inhibition of retinoid-resistant human MDA-MB-231 cells expressing p53 and ERbeta gene at 1 uM after 48 hrs by MTT assay; format: functional; settings: MDA-MB-231, 48 h, read-out: GI

For `O=C(O)/C=C/c1cnc(-c2ccc(O)c(C34CC5CC(CC(C5)C3)C4)c2)nc1`, the Activity [1] was “Dose-dependent effect”, the Activity [2] was “Dose-dependent effect” and the Activity [3] was “Non-toxic”. The Activity [4] was 100.9%, the Activity [5] was “Active” and the Activity [6] was 35%. For the same compound, the Activity [7] was 100%, the Activity [8] was “Active” and the Activity [9] was “inactive”. For the same compound, the inhibition of growth at 5 µM [10] was 100%, the Activity [11] was “Non-toxic” and the Activity [12] was 40%. For the same compound, the Activity [13] was 35%, the Activity [14] was 50% and the Activity [15] was 5.7%. The Activity [16] was “Non-toxic”, the IC50 [17] was 60 nM and the solubility ([18]; PBS, read-out: solubility) was 0.44 µM (≈ 0.166 µg/mL). For the same compound, the Activity [19] was 5.7%, the inhibition of growth at 1 µM [20] was 100% and the Activity [21] was “Dose-dependent effect”. The Activity [22] was “Non-toxic”, the Activity [23] was “Non-toxic” and the Activity [24] was 15%.
Work on `O=C(O)/C=C/c1ccc(-c2ccc(O)c(C34CC5CC(CC(C5)C3)C4)c2)c(Cl)c1` yielded an inhibition of growth at 1 µM [25] of 8%, an Activity [26] of 3% and a solubility [27] of 4.5 µM (≈ 1.84 µg/mL). The Activity [28] was 94%, the Activity [1] was “Dose-dependent effect” and the Activity [2] was “Dose-dependent effect”. For the same compound, the Activity [29] was “inactive”, the Activity [4] was 90.4% and the Activity [30] was 7%. The “growth inhibition (GI)” value [31] was “inactive”, the Activity [5] was “Active” and the Activity [6] was 30%. For the same compound, the Activity [7] was 62.7%, the Activity [8] was “Active” and the Activity [9] was “>=40%”. It also gave an inhibition of growth at 5 µM [10] of 67%, an Activity [12] of 30% and an Activity [13] of 30%. It also gave an Activity [14] of 55%, an Activity [15] of 9.3% and an Activity [32] of 51%. The Activity [33] was <60%, the IC50 [17] was 281 nM and the solubility ([18]; buffer) was “soluble”. It also gave an inhibition of growth at 1 µM [34] of 43%, an Activity [19] of 9.3% and an inhibition of growth at 1 µM [20] of 44%. The Activity [21] was “Dose-dependent effect” and the Activity [24] was 30%.
